In patent publication US6242601A, “Heterocyclic sulfamides” (Hoffman-La Roche Inc., priority 1999, dated 2001):

Key:
[1] = molecular target: T1, recombinant human ETA receptors (Homo sapiens, UniProt P25101); assay: Inhibition of endothelin binding on recombinant human ETA receptors expressed in CHO cells ([125I]ET-1, whole attached cells); set-up: expressed in transfected cells; host or cells: CHO cells; conditions: 35 pM [125I]ET-1, 2 h, 22° C.
T1 sequence (P25101 21-427): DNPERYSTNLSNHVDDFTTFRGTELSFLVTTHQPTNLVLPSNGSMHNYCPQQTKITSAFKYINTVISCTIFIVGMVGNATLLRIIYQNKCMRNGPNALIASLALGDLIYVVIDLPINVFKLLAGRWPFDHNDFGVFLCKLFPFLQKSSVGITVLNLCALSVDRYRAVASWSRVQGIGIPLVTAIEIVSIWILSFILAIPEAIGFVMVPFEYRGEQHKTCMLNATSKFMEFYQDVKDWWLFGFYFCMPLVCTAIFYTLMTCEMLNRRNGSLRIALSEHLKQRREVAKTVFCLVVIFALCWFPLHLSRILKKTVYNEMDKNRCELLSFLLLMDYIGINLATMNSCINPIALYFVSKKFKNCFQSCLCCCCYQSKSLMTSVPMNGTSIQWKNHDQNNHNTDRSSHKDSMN
Method: II. […] Cell culture. CHO cells, expressing recombinant human ETA receptor are grown in Minimal Essential Alpha Medium (Gibco Laboratories, Paisley, Scotland) supplemented with 0.1 μM methotrexate, 5% dialyzed fetal calf serum, 100 U/ml of penicillin and 100 μg/ml of streptomycin. Binding assays with whole attached cells are performed in 500 μl Dulbecco's Eagle medium (DMEM) containing 2 mg/ml bovine serum albumin and 25 mM Hepes. After incubation (2 h, 22° C.) in the presence of 35 pM [^125 I]ET-1 and increasing concentrations of various antagonists, the cells are extensively washed and finally solubilized in 1% (w/v) SDS, 0.5 M NaOH and 100 mM EDTA. Each assay is performed three times in triplicates and non specific binding is assessed in the presence of 100 nM unlabelled ET-1. Specific binding is defined as the difference between total binding and non specific binding. IC50 values are determined after logit/log transformation of the binding data.

[2] = molecular target: T1, recombinant human ETA receptors; assay: Inhibition of endothelin binding to recombinant human ETA receptors expressed in baculovirus-infected insect cells (125I-endothelin); conditions: 125I-endothelin 20 pM; baculovirus-infected insect cell membranes; 20° C. for 2 hours or 4° C. for 24 hours
Method: I. […] A cDNA coding for human ETA receptors of human placenta was cloned ([…]. Yang, Y. Furuichi and C. Miyamoto, BBRC 180, 1265-1272) and expressed in the Baculovirus-insect cell system. Baculovirus-infected insect cells from a 23 1 fermenter are centrifuged off (3000×g, 15 minutes, 4° C.) 60 hours after the infection, re-suspended in Tris buffer (5 mM, pH 7.4, 1 mM MgCl2) and again centrifuged. After a further re-suspension and centrifugation the cells are suspended in 800 ml of the same buffer and […] at -120° C. The cells disintegrate when the suspension in this hypotonic buffer mixture is thawed. After a repeated […]/thawing cycle the suspension is homogenised and centrifuged (25000×g, 15 minutes, 4° C.). After suspension in Tris buffer (75 mM, pH 7.4, 25 mM MgCl2, 250 mM sucrose) 1 ml aliquots (protein content about 3.5 mg/ml) are stored at -85° C. […] The incubation is carried out at 20° C. for 2 hours or at 4° C. for 24 hours. The separation of free and membrane-bound radio-ligands is carried out by filtration over a glass fibre filter.

[3] = Pharmacokinetics of the endothelin receptor antagonists after oral gavage in rats; assay type: in vivo; conditions: rat, plasma, 5 mg/kg in DMSO, Wistar rats, bioassay; for AUC: read-out: Area under the plasma concentration time curve; for Cmax: read-out: Peak concentration in rat plasma
Method: IV. […] The test compounds were dissolved in DMSO at a concentration of 5 mg/mL and administered orally by gavage at a dose of 1 mL/kg body weight corresponding to 5 mg/kg body weight. Two rats were administered per test compound. Blood samples were collected from the retro-orbital sinus at 1 and 5 h post dose in one rat, and at 3 and 7 h post dose in the other rat. In addition a terminal 24 h blood sample was collected from both rats by heart puncture. Blood was collected on EDTA-NaF. Plasma was derived by centrifugation at 2000 g at +4° C. for 15 min. Plasma samples were assayed for active drug related material with a bioassay, based on the binding competition of tested compounds and ^125 I ET-1 on recombinant ETA receptors. Quantitation of plasma samples was by comparison to a calibration curve build up from control rat plasma spiked with known concentrations of the test compounds.

isolated rat aorta rings = molecular target: T2, isolated rat aorta rings (Rattus norvegicus, UniProt P26684); assay: Inhibition of endothelin-induced contractions in isolated rat aorta rings; set-up: species or system adult Wistar-Kyoto rats; conditions: rat aorta rings without endothelium, 37° C.; endothelin-1 cumulative; from dose ratio; read-out: pA2 (converted)
T2 construct: Rings with a length of 5 mm were cut out from the thorax aorta of adult Wistar-Kyoto rats; from tissue; host or cells: thoracic aorta of adult Wistar-Kyoto rats, endothelium removed
T2 sequence (P26684 21-426): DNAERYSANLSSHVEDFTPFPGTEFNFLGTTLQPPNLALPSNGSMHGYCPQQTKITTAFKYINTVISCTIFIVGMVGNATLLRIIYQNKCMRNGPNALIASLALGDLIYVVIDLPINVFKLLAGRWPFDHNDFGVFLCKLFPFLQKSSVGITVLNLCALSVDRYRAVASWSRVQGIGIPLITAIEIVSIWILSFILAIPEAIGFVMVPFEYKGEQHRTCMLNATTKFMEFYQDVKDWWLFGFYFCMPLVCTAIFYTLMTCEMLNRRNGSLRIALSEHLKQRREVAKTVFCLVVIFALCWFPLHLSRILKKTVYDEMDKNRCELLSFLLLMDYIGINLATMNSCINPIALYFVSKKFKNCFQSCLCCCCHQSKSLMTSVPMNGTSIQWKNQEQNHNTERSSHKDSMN
Method: Rings with a length of 5 mm were cut out from the thorax aorta of adult Wistar-Kyoto rats. The endothelium was removed by lightly rubbing the internal surface. Each ring was immersed at 37° C. in 10 ml of Krebs-Henseleit solution in an isolated bath while gassing with 95% O2 and 5% CO2. The isometric stretching of the rings was measured. The rings were stretched to a pre-tension of 3 g.
The corresponding pA2 value, which is a measure of the activity of the test compound, was calculated using a computer programme according to the following equation from the "dose ratio" DR for each individual dosage-activity curve.
pA2 =log(DR-1)-log(antagonist-concentration)

COC(=O)COc1cccc(-c2nc(NS(=O)(=O)c3ccc(C)cn3)c(Oc3ccccc3OC)c(OC)n2)c1 [Example 2, {3-[4-methoxy-5-(2-methoxy-phenoxy)-6-(5-methyl-pyridine-2-sulfonylamino)-pyrimidin-2-yl]-phenoxy}-acetic acid methyl ester]
IC50 [1]: ≤ 10 nM

C=C(C)c1ccc(S(=O)(=O)Nc2nc(-c3cccc(O)c3)nc(OC)c2Oc2ccccc2OC)nc1 [Example 15, 5-isopropenyl-pyridine-2-sulfonic acid [2-(3-hydroxy-phenyl)-6-methoxy-5-(2-methoxy-phenoxy)-pyrimidin-4-yl]-amide]
IC50 [2]: ≤ 50 nM

COc1ccccc1Oc1c(NS(=O)(=O)c2ccc(C)cn2)nc(-c2ccnc(C#N)c2)nc1OC [Example 19, 5-methyl-pyridine-2-sulfonic acid [2-(2-cyano-pyridin-4-yl)-6-methoxy-5-(2-methoxy-phenoxy)-pyrimidin-4-yl]-amide]
AUC [3]: ≥ 10000 ng·h/mL
Cmax [3]: ≥ 1500 ng/mL
IC50 [1]: ≤ 10 nM

COC(=O)c1cc(-c2nc(NS(=O)(=O)c3ccc(C)cn3)c(Oc3ccccc3OC)c(OC)n2)ccn1 [Example 22, 4-[4-methoxy-5-(2-methoxy-phenoxy)-6-(5-methyl-pyridine-2-sulfonylamino)-pyrimidin-2-yl]-pyridine-2-carboxylic acid methyl ester]
AUC [3]: ≥ 10000 ng·h/mL
Cmax [3]: ≥ 1500 ng/mL
IC50 [2]: ≤ 50 nM

COc1ccccc1Oc1c(NS(=O)(=O)c2ccc(C)cn2)nc(-c2ccnc(C(=O)OCCO)c2)nc1OC [Example 25, 4-[4-methoxy-5-(2-methoxy-phenoxy)-6-(5-methyl-pyridine-2-sulfonylamino)-pyrimidin-2-yl]-pyridine-2-carboxylic acid 2-hydroxy-ethyl ester]
IC50 [2]: ≤ 50 nM

COc1ccccc1Oc1c(NS(=O)(=O)c2ccc(C)cn2)nc(-c2ccnc(CO)c2)nc1OC [Example 29, 5-methyl-pyridine-2-sulfonic acid [2-(2-hydroxymethyl-pyridin-4-yl)-6-methoxy-5-(2-methoxy-phenoxy)-pyrimidin-4-yl]-amide]
IC50 [1]: ≤ 10 nM
IC50 [2]: ≤ 50 nM

COc1ccccc1Oc1c(NS(=O)(=O)c2ccc(C)cn2)nc(-c2ccnc(CNC(C)=O)c2)nc1OC [Example 30, N-{4-[4-methoxy-5-(2-methoxy-phenoxy)-6-(5-methyl-pyridine-2-sulfonylamino)-pyrimidin-2-yl]-pyridin-2-ylmethyl}-acetamide]
IC50 [1]: ≤ 10 nM

CCS(=O)(=O)NCc1cc(-c2nc(NS(=O)(=O)c3ccc(C)cn3)c(Oc3ccccc3OC)c(OC)n2)ccn1 [Example 32, 5-methyl-pyridine-2-sulfonic acid [2-[2-(ethanesulfonylamino-methyl)-pyridin-4-yl]-6-methoxy-5-(2-methoxy-phenoxy)-pyrimidin-4-yl]-amide]
IC50 [2]: ≤ 50 nM

COc1ccccc1Oc1c(NS(=O)(=O)c2ccc(C)cn2)nc(-c2ccnc(C(=N)NO)c2)nc1OC [Example 34, N-hydroxy-4-[4-methoxy-5-(2-methoxy-phenoxy)-6-(5-methyl-pyridine-2-sulfonylamino)-pyrimidin-2-yl]-pyridine-2-carboxamidine]
IC50 [2]: ≤ 50 nM

COc1ccccc1Oc1c(NS(=O)(=O)c2ccc(C)cn2)nc(-c2ccnc(-c3noc(C)n3)c2)nc1OC [Example 35, 5-methyl-pyridine-2-sulfonic acid {6-methoxy-5-(2-methoxy-phenoxy)-2-[2-(5-methyl-[1,2,4]oxadiazol-3-yl)-pyridin-4-yl]-pyrimidin-4-yl}-amide]
AUC [3]: ≥ 10000 ng·h/mL
Cmax [3]: ≥ 1500 ng/mL
Kb (isolated rat aorta rings): ≤ 6.31 nM

COc1ccccc1Oc1c(NS(=O)(=O)c2ccc(C)cn2)nc(-c2ccnc(OCCO)c2)nc1OC [Example 36, 5-methyl-pyridine-2-sulfonic acid [2-[2-(2-hydroxy-ethoxy)-pyridin-4-yl]-6-methoxy-5-(2-methoxy-phenoxy)-pyrimidin-4-yl]-amide]
IC50 [1]: ≤ 10 nM

CCOc1cc(-c2nc(NS(=O)(=O)c3ccc(C)cn3)c(Oc3ccccc3OC)c(OC)n2)ccn1 [Example 38, 5-methyl-pyridine-2-sulfonic acid [2-(2-ethoxy-pyridin-4-yl)-6-methoxy-5-(2-methoxy-phenoxy)-pyrimidin-4-yl]-amide]
IC50 [2]: ≤ 50 nM

COc1ccccc1Oc1c(NS(=O)(=O)c2ccc(C(C)C)cn2)nc(-c2ccnc(CO)c2)nc1OC [Example 44, 5-isopropyl-pyridine-2-sulfonic acid [2-(2-hydroxymethyl-pyridin-4-yl)-6-methoxy-5-(2-methoxy-phenoxy)-pyrimidin-4-yl]-amide]
Kb (isolated rat aorta rings): ≤ 6.31 nM

CNC(=O)c1cc(-c2nc(NS(=O)(=O)c3ccc(C(C)C)cn3)c(Oc3ccccc3OC)c(OC)n2)ccn1 [Example 48, 4-[4-(5-isopropyl-pyridine-2-sulfonylamino)-6-methoxy-5-(2-methoxy-phenoxy)-pyrimidin-2-yl]-pyridine-2-carboxylic acid methylamide]
IC50 [2]: ≤ 50 nM

COc1ccccc1Oc1c(NS(=O)(=O)c2ccc(C(C)C)cn2)nc(-c2ccnc(C(=O)N(C)C)c2)nc1OC [Example 51, 4-[4-(5-isopropyl-pyridine-2-sulfonylamino)-6-methoxy-5-(2-methoxy-phenoxy)-pyrimidin-2-yl]-pyridine-2-carboxylic acid dimethylamide]
IC50 [2]: ≤ 50 nM

COc1ccccc1Oc1c(NS(=O)(=O)c2ccc(C(C)C)cn2)nc(-c2ccnc(-c3noc(C)n3)c2)nc1OC [Example 56, 5-isopropyl-pyridine-2-sulfonic acid {6-methoxy-5-(2-methoxy-phenoxy)-2-[2-(5-methyl-[1,2,4]oxadiazol-3-yl)-pyridin-4-yl]-pyrimidin-4-yl}-amide]
IC50 [2]: ≤ 50 nM

COc1ccccc1Oc1c(NS(=O)(=O)c2ccc(C(C)C)cn2)nc(-c2ccnc(OCCO)c2)nc1OC [Example 57, 5-isopropyl-pyridine-2-sulfonic acid [2-[2-(2-hydroxy-ethoxy)-pyridin-4-yl]-6-methoxy-5-(2-methoxy-phenoxy)-pyrimidin-4-yl]-amide]
Kb (isolated rat aorta rings): ≤ 6.31 nM
